The results in this text go back to US20230073183A1, “IMPROVED URICASE AND METHOD FOR TREATING HYPERURICEMIA USING SAME” (SHANGHAI JUNSHI BIOSCIENCES CO., LTD., priority 2019, published 2023).

Positions count from the first letter of the chain named. Names and notes keep the numbering of the source.

Common to all, as to type: biochemical
Series [1] concerns the target T1, Micrococcus uricase variant AG-2C13-PEG (A35C/S288C in AG-00-1, SEQ ID NO: 3; PEGylated) (Arthrobacter globiformis, UniProt D0VWQ1, A35C/S288C).
T1 construct: purified
T1 sequence (D0VWQ1 1-297 A35C/S288C): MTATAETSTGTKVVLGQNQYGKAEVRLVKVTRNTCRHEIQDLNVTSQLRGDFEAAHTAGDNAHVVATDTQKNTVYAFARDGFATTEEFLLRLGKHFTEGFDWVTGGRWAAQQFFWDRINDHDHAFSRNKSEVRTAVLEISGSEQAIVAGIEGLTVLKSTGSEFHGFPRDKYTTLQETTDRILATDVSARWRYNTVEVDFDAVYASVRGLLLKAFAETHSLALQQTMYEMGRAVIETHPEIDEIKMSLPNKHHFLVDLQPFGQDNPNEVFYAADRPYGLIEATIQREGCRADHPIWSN
In words: Enzyme activity kinetic study of PEGylated uricase with uric acid. The following applies: Tris-HCl pH 8.5, 37° C.; turnover number, substrate converted within one second. On the procedure: (§1) By using a method similar to that in Example 1 to introduce Cys mutations, the following molecules were prepared: AG-2C12, AG-2C13, AG-2C16, AG-2C17, AG-1C13-1, AG-2C01, AG-2C05-1, AG-2C01-1 and AG-2C12-1.
(§2) To 2 mg of a uricase (100 mM PBS buffer, pH=7.0, 150 mM NaCl) were sequentially added TCEP.HCl (0.5 mg, tris(2-carboxyethyl)phosphine hydrochloride) and M-MAL-PEG-10K (27.5 mg, maleimide polyethylene glycol, molecular weight of 10,000 Da). The mixture was allowed to react at room temperature for 2 h. The reaction mixture was purified by ion-exchange chromatography to obtain a PEGylated uricase.
(§3) The Cys mutation sites selected above were paired for PEGylation modification and uricase activity evaluation.
(§4) A. Enzyme Activity Kinetic Study of PEGylated […]
(§5) Tris-HCl buffer system (pH 8.5) was used. The stock solution for uricase working solutions was 2 mM uric acid, which was stored at 4° C. Process of enzyme activity assay:
(§6) The temperature was set at 37° C.
(§7) Substrate (uric acid) concentration gradients: 600 μmol, 500 μmol, 400 μmol, 200 μmol, 100 μmol, 50 μmol, 25 μmol, and 12.5 μmol.
(§8) 50 μL of the above uric acid solution and 30 μL of the above Tris-HCl buffer were first added to a 96-well plate and incubated at 37° C. for 20 min. Then 20 μL of an appropriately diluted uricase solution (0.004 mg/mL) was rapidly added to the 96-well plate. Procedure setting: reaction for 10 min, one data reading every 20 s, and initiation of reaction.

The target in series [2] is T2, Micrococcus uricase variant AG-2C12-PEG (S142C/E216C in AG-00-1, SEQ ID NO: 3; PEGylated) (Arthrobacter globiformis, UniProt D0VWQ1, E216C/S142C).
T2 construct: purified
T2 sequence (D0VWQ1 1-297 S142C/E216C): T1 sequence (D0VWQ1 1-297 A35C/S288C) with C35A, S142C, E216C, C288S
Described as above. The following applies: Tris-HCl pH 8.5, 37° C.; turnover number, substrate converted within one second. On the procedure: as §1, §2, §3, §4, §5, §6, §7, §8

The target of series [3] is T3, Micrococcus uricase variant AG-2C01-2-PEG (A35C/T194C in AG-00-1, SEQ ID NO: 3; PEGylated) (Arthrobacter globiformis, UniProt D0VWQ1, A35C/T194C).
T3 construct: purified
T3 sequence (D0VWQ1 1-297 A35C/T194C): T1 sequence (D0VWQ1 1-297 A35C/S288C) with T194C, C288S
Described as above. The following applies: Tris-HCl pH 8.5, 37° C.; turnover number, substrate converted within one second. Here is the method:
as §1, §2, §3, §4, §5, §6, §7, §8

For series [4], the target named is T4, reference uricase MEDI4945 (SEQ ID NO: 2) (Arthrobacter globiformis, UniProt D0VWQ1, N33C/R49S/T11C).
T4 sequence (D0VWQ1 with tags, fused parts or gaps T11C/N33C/R49S): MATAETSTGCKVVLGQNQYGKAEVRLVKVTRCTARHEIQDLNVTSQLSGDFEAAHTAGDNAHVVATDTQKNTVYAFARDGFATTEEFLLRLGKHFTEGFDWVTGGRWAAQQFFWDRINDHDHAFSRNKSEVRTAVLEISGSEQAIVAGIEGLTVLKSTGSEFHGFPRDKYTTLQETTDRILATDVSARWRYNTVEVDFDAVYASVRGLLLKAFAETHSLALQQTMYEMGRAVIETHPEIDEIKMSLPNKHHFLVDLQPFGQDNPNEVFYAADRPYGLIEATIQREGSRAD
Nature of the series: Enzyme activity kinetic study of reference uricase with uric acid. The conditions noted are these: Tris-HCl pH 8.5, 37° C.; turnover number, substrate converted within one second. On the procedure: (§9) A reference uricase MEDI4945 was synthesized using a method similar to that described above, having an amino acid sequence of SEQ ID NO: 2. MEDI4945 is the uricase disclosed in International Application No. PCT/US2016/032415, having an amino acid sequence shown below:
as §4, §5, §6, §7, §8

Substrate in series [5]: O=c1[nH]c(=O)c2[nH]c(=O)[nH]c2[nH]1
Described as above. The following applies: other: Tris-HCl pH 8.5, 37° C., uric acid 12.5-600 μmol. Here is the method:
as §9, §4, §5, §6, §7, §8

For orientation: Km means the concentration of substrate that gives half-maximal velocity.

As for `O=c1[nH]c(=O)c2[nH]c(=O)[nH]c2[nH]1` [uric acid], the Kcat in series [1] worked out at 3.6; in series [2] it was 5.3; in series [3] it was 5.4; in series [4] it was 2.6.

B1: reference uricase MEDI4945 (SEQ ID NO: 2) (Arthrobacter globiformis; N33C/R49S/T11C) (protein)
chain: T4 sequence (D0VWQ1 with tags, fused parts or gaps T11C/N33C/R49S)
As to B1, the Km in series [5] is 101 µM.
